Reference: patent US12286443B2, “Bycyclic JAK inhibitors and uses thereof” (Insilico Medicine IP Limited, priority 2019, dated 2025)
Like-named read-outs stand apart in the source and are kept apart here.

Tests used:
JAK3 = target: T1, JAK3 (Homo sapiens, UniProt P52333); assay: Inhibition of JAK3 kinase, LANCE Ultra TR-FRET assay; format: biochemical; conditions: 2x ATP 8 μM, 15 min pre-incubation, 90 min reaction, 23° C.
T1 construct: purchased Invitrogen PV4080
T1 sequence (P52333 1-1124): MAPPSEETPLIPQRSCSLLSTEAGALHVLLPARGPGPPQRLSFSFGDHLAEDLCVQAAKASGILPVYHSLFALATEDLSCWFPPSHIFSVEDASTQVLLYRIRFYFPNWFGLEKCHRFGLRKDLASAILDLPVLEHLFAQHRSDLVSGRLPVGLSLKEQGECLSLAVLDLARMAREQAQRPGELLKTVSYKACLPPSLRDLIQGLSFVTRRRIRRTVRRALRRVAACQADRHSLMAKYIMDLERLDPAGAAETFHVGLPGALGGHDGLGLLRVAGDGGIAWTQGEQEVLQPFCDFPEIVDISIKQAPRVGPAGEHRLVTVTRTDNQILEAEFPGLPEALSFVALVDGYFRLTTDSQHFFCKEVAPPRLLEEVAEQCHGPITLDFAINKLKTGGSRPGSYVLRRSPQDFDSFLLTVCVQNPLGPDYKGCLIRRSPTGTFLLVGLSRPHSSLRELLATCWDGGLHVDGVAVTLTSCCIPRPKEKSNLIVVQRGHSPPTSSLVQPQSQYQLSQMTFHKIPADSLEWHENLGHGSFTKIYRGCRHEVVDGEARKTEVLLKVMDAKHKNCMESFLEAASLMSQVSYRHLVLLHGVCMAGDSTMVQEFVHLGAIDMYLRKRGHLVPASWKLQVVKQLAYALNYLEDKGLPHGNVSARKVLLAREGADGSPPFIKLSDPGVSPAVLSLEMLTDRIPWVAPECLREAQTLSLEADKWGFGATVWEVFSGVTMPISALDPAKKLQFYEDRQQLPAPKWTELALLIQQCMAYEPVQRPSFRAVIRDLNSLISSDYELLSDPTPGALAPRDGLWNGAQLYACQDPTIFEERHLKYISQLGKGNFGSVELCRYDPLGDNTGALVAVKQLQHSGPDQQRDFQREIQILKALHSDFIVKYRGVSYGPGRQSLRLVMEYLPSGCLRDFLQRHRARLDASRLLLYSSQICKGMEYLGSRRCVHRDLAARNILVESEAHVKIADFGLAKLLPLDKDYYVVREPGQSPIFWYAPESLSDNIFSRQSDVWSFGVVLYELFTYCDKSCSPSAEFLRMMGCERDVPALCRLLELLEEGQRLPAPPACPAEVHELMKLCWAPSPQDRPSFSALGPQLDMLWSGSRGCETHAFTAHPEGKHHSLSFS
Procedure: (§1) Exemplary compounds were assayed to determine potency in inhibiting activity of JAK1-3 and TYK2 kinases by determining IC50 values.
(§2) The sources of test materials and equipment are as follows: JAK1 (Invitrogen, Cat. No PV4775), JAK2 (Invitrogen, Cat. No PV4210), JAK3 (Invitrogen, Cat. No PV4080), TYK2 (Invitrogen, Cat. No PR8440C), ATP (Sigma, Cat. No. A7699-1G), DMSO (Sigma, Cat. No. D2650), DTT (Sigma, Cat. No. 43815), 384 wells_compound plate (Greiner, Cat. No. 781280), 384 wells_assay plate (Perkin Elmer, Cat. No. 6007299), LANCE Ultra ULight™-JAK-1 peptide (Perkin Elmer, Cat. No. TRF0121), LANCET™ Eu-W1024 Anti-phosphotyrosine (PT66) (Perkin Elmer, Cat. No. AD0069), LANCET™ Detection Buffer(Perkin Elmer, Cat. No. CR97-100).
(§3) The concentrations of test compounds varied from 100 μM to 1.7 nM with 3-fold dilution, 11 points, in duplicates while the concentrations of the reference compound, Tofacitinib, varied from 1 μM to 0.017 nM with 3-fold dilution, 11 points, in duplicates.
(§4) The assay buffer contained 50 mM HEPES (pH 7.5), 0.01% Brij-35, 10 mM MgCl2, 1 mM EDTA, 2 mM DTT. Incubations were carried out at 23° C.
(§5) Prior to the assay, enzyme, peptide substrate and serially diluted test compounds were pre-incubated together in assay buffer (5 μL) for 15 minutes (peptide substrate concentration: 50 nM; JAK enzyme concentrations: 2 nM JAK1; […]; […] and 4 nM TYK2). And the assay was initiated by the addition of 5 μL assay buffer containing 2× final ATP concentration (these are the 2×ATP concentrations: 76 μM JAK1; 24 μM JAK2; 8 μM JAK3 and 30 μM TYK2). Following the 90-minute incubation, antibody conjugated with Eu is dissolved in detection buffer to add into wells and then incubated for 60 minutes. The 10 μL detection buffer contains EDTA to stop the enzymatic reaction. The plate is analyzed by Perkin Elmer Envision on TR-FRET mode. The high ratio of 665/615 represents no inhibition of kinase reaction while the low ratio of 665/615 represents complete inhibition of kinase reaction.
(§6) Curves are fit by XLFIT5 as inhibition rate % vs. log [compound concentration] using 4 parameters logistic model 205.
(§7) In the table, “A” indicates an IC50 of less than 100 nM, “B” indicates an IC50 range from 100 nM to 500 nM; “C” indicates an IC50 range from 500 nM to 2 μM; and “D” indicates an IC50 greater than 2 μM. Also, “na” indicates data is not available.

Hut-78 cells = assay: Inhibition in Hut-78 cells (IL-2 stimulated, HTRF); format: cell-based; conditions: Homo sapiens
Procedure: Exemplary compounds were assayed to determine potency in inhibiting Hut-78 cells by determining IC50 values.
Hut-78 cells were cultures in IMDM+20% FBS medium. Cells were maintained in log phase before the assay. Cell pellets were collected and resuspended in serum-free and phenol-free RPMI 1640 medium. 40,000 cells/well (10 μL) were seeded in each well of a 384-well plate and incubated with and without compound for 2 hours at 37° C. and 5% C02. IL-2 was added (2 μL, final concentration 100 ng/mL) and the mixture was incubated for 10 min. Cells were lysed by adding 4 μL labeled antibodies and the mixture was incubated overnight. The plate was read using the HTRF protocol on an Envision plate reader. The data was analyzed using XL-fit software (Supplier: ID business solutions Ltd.; Software version: XL fit 5.0). Inhibition %=(Max−Sample value)/(Max−Min)*100.
In the table, “A” indicates an IC50 of less than 0.5 μM, “B” indicates an IC50 range from 0.5 μM to 1 μM; and “C” indicates an IC50 range from 1 μM to 10 μM. Also, “na” indicates data is not available.

JAK2 = target: T2, JAK2 (Homo sapiens, UniProt O60674); assay: Inhibition of JAK2 kinase, LANCE Ultra TR-FRET assay; format: biochemical; conditions: 2x ATP 24 μM, 15 min pre-incubation, 90 min reaction, 23° C.
T2 construct: purchased Invitrogen PV4210
Procedure: as §1, §2, §3, §4, §5, §6, §7

JAK1 = target: T3, JAK1 (Homo sapiens, UniProt P23458); assay: Inhibition of JAK1 kinase, LANCE Ultra TR-FRET assay; format: biochemical; conditions: 2 nM JAK1, 2x ATP 76 μM, 15 min pre-incubation, 90 min reaction, 23° C.
T3 construct: purchased Invitrogen PV4775
Procedure: as §1, §2, §3, §4, §5, §6, §7

TYK2 = target: T4, TYK2 (Homo sapiens, UniProt P29597); assay: Inhibition of TYK2 kinase, LANCE Ultra TR-FRET assay; format: biochemical; conditions: 4 nM TYK2, 2x ATP 30 μM, 15 min pre-incubation, 90 min reaction, 23° C., read-out: tyk IC50
T4 construct: purchased Invitrogen PR8440C
Procedure: as §1, §2, §3, §4, §5, §6, §7

[1] = HuT78, compound 2 hours at 37° C., then IL-2 100 ng/mL 10 min, HTRF, read-out: Hut-78 cells IC50

T3 sequence (P23458 whole entry): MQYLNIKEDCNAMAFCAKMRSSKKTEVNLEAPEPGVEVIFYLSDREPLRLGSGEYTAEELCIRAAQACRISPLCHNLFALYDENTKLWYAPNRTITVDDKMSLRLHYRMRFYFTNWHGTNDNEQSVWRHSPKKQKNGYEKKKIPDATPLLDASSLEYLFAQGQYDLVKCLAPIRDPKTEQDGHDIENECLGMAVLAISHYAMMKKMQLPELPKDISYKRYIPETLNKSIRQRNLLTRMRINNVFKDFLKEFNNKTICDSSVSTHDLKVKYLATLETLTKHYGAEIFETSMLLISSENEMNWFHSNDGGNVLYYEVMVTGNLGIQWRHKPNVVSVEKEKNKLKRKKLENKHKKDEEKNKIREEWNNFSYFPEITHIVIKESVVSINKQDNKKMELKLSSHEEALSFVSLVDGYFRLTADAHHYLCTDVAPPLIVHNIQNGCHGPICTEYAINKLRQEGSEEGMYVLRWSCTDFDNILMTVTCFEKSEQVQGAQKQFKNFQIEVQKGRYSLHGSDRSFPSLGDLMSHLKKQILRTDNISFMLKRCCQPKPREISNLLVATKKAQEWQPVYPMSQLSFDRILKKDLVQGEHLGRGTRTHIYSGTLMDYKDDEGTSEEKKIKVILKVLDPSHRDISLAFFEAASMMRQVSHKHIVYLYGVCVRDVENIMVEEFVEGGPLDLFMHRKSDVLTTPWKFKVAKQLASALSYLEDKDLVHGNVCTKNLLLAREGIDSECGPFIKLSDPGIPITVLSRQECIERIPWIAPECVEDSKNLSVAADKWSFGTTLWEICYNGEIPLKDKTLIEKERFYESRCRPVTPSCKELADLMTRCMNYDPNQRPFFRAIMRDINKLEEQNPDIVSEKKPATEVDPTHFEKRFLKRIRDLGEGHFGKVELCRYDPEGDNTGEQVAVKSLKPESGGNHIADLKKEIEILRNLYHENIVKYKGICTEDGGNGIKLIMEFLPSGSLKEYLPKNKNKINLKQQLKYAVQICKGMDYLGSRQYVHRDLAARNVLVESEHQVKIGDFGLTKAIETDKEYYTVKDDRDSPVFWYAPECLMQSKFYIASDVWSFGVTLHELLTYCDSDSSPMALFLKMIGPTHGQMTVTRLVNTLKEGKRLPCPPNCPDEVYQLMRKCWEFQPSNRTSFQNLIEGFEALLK
T2 sequence (O60674 whole entry): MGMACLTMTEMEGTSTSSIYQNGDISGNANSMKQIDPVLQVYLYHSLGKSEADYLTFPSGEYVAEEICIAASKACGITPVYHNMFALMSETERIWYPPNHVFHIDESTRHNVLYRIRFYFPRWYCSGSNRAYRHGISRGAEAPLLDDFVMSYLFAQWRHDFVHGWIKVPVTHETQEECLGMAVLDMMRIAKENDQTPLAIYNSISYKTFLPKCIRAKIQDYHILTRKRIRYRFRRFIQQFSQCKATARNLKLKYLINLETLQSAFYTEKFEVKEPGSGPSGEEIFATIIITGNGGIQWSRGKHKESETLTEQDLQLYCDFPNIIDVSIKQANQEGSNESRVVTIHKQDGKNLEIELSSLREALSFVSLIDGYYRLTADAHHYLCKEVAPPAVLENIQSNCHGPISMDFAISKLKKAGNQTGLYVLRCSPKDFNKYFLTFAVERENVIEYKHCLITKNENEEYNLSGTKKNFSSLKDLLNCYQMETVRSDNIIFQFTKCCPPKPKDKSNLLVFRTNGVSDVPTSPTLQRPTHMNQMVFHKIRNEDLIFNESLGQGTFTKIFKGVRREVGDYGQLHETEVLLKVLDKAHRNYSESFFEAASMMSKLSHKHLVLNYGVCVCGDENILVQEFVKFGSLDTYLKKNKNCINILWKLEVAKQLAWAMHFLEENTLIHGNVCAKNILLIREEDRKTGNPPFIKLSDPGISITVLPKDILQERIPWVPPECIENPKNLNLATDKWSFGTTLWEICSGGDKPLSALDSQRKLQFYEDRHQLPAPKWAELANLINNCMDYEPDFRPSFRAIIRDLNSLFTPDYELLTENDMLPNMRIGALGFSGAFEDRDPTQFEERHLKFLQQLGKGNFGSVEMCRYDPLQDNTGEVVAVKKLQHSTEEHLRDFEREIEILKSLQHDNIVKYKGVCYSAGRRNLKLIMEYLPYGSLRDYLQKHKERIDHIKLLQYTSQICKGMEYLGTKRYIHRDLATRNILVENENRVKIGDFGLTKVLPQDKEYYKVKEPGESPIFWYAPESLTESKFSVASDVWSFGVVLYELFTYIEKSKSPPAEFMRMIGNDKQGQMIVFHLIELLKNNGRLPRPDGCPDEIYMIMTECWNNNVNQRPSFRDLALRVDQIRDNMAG
T4 sequence (P29597 whole entry): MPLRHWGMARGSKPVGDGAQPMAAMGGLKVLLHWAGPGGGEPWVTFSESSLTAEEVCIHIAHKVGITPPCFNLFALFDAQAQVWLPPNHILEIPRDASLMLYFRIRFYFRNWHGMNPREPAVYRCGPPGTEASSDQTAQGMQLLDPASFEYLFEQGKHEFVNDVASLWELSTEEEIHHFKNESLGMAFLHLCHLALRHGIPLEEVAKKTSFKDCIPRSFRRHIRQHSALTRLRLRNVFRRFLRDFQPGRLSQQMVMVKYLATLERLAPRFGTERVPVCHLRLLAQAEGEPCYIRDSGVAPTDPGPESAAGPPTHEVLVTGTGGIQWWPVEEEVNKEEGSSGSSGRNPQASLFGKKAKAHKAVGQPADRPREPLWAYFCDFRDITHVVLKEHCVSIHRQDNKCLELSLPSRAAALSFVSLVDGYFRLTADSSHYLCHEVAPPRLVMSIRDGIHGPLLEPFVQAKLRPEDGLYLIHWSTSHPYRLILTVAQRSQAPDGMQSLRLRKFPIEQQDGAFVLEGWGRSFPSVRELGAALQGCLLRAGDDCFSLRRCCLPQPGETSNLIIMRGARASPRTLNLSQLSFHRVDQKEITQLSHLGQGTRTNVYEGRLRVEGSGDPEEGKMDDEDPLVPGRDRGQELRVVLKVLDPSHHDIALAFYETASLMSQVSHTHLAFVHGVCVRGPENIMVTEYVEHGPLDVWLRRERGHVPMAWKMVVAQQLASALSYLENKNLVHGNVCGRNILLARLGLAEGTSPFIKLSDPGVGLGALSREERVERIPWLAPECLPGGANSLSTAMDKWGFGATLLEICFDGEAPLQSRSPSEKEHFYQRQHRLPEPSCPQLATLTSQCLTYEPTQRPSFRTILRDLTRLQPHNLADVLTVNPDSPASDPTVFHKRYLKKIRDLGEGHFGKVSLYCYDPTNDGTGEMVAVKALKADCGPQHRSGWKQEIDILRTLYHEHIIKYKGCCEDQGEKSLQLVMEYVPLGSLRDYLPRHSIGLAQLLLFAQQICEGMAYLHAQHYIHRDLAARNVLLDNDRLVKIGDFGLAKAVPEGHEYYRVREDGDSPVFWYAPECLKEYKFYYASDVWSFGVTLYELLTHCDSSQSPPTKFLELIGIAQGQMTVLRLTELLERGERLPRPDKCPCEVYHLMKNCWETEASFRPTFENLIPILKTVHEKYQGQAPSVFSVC

| IC50 (JAK3) | IC50 (Hut-78 cells; [1]) | IC50 (JAK2) | IC50 (JAK1) | IC50 (TYK2) | SMILES | IC50 (Hut-78 cells; HuT78, read-out: Hut-78 cells IC50 (μM)) |
| --- | --- | --- | --- | --- | --- | --- |
| < 100 nM | < 0.5 µM | < 100 nM | < 100 nM | 100 to 500 nM | O=C(NCC(O)C(F)(F)F)c1noc2c1CN(c1ncnc3[nH]ccc13)CC2 (stereo not shown) [Compound 190] | – |
| 100 to 500 nM | – | 500 to 2000 nM | 500 to 2000 nM | > 2000 nM | O=C(NCCc1ccccn1)c1noc2c1CN(c1ncnc3[nH]ccc13)CC2 [Compound 153] | – |
| 100 to 500 nM | – | > 2000 nM | 100 to 500 nM | > 2000 nM | O=C(NCCC(F)(F)F)c1nn(CCCCc2ccccc2)c2c1CN(c1ncnc3[nH]ccc13)CC2 [Compound 116] | – |

More lines, now with the values behind:

| SMILES | IC50 (JAK3) | IC50 (Hut-78 cells; [1]) | IC50 (JAK2) | IC50 (JAK1) | IC50 (TYK2) | IC50 (Hut-78 cells; HuT78, read-out: Hut-78 cells IC50 (μM)) |
| --- | --- | --- | --- | --- | --- | --- |
| O=C(N[C@H]1C[C@@](O)(C(F)(F)F)C1)c1noc2c1CN(c1ncnc3[nH]ccc13)CC2 [Compound 202] | < 100 nM | < 0.5 µM | < 100 nM | < 100 nM | 500 to 2000 nM | – |
| O=C(NCCC(F)(F)F)c1onc2c1CN(c1ncnc3[nH]ccc13)CC21CC1 [Compound 193] | < 100 nM | 0.5 to 1 µM | 100 to 500 nM | 100 to 500 nM | 500 to 2000 nM | – |
| O=C(NCC(F)(F)F)c1noc2c1CN(c1ncnc3[nH]ccc13)CC2 [Compound 178] | < 100 nM | – | < 100 nM | < 100 nM | 500 to 2000 nM | 0.5 to 1 µM |
| O=C(NCCC(F)(F)F)C1=NOC2CN(c3ncnc4[nH]ccc34)CC12 (stereo not shown) [Compound 187] | 100 to 500 nM | – | 500 to 2000 nM | 100 to 500 nM | > 2000 nM | – |
| O=C(NCCC(O)C1CCCC1)c1noc2c1CN(c1ncnc3[nH]ccc13)CC2 (stereo not shown) [Compound 159] | 100 to 500 nM | – | > 2000 nM | 500 to 2000 nM | > 2000 nM | – |
| O=C(NCCN1CCS(=O)(=O)CC1)c1noc2c1CN(c1ncnc3[nH]ccc13)CC2 [Compound 161] | 500 to 2000 nM | – | > 2000 nM | 500 to 2000 nM | > 2000 nM | – |
